Species: Rattus norvegicus
Experiment: Open TG-GATES - Regimen: Single
Format: toxicity, organism-based, Sprague-Dawley
Set-up: regimen Single, gender Male, age 6 weeks
Conditions: in vivo, po, 0 mg/kg, route gavage, dose level Control; for APTT / Bas / Eos / Fbg / Hb / Ht / Lym / MCH / MCHC / MCV / Mono / Neu / PT / Plat / RBC / Ret / WBC: tissue Blood; for KIDNEY_L / KIDNEY_R / KIDNEY_TOTAL: tissue Kidney; for LIVER: tissue Liver; for A/G / ALP / ALT / AST / BUN / CRE / Ca / Cl / DBIL / GLC / IP / K / LDH / Na / PL / RALB / TBIL / TC / TG / TP / gamma-GTP: tissue Plasma

C[C@H]1C(=O)O[C@@H]2CCN3CC=C(COC(=O)[C@](C)(O)[C@]1(C)O)[C@H]23 [MONOCROTALINE]
TERMINAL_BW (3 h): 217.7 g | APTT (3 h): 20.3 s | Bas (3 h): 0% | Eos (3 h): 0.8% | Fbg (3 h): 316 mg/dL | Hb (3 h): 12.9 g/dL | Ht (3 h): 37.7% | Lym (3 h): 76.4% | MCH (3 h): 21.8 pg | MCHC (3 h): 34.2% | MCV (3 h): 63.8 fL | Mono (3 h): 3.2% | Neu (3 h): 19% | PT (3 h): 16.8 s | Plat (3 h): 116.9 x10_4/uL | RBC (3 h): 591.6 x10_4/ul | Ret (3 h): 9.3% | WBC (3 h): 86.4 x10_2/uL | KIDNEY_L (3 h): 1 g | KIDNEY_R (3 h): 1 g | KIDNEY_TOTAL (3 h): 2 g | LIVER (3 h): 10.4 g | A/G (3 h): 1.3 | ALP (3 h): 1563.2 IU/L | ALT (3 h): 38 IU/L | AST (3 h): 66.8 IU/L | BUN (3 h): 13.4 mg/dL | CRE (3 h): 0.2 mg/dL | Ca (3 h): 10.7 mg/dL | Cl (3 h): 106.6 meq/L | DBIL (3 h): 0.002 mg/dL | GLC (3 h): 185.6 mg/dL | IP (3 h): 8.3 mg/dL | K (3 h): 4 meq/L | LDH (3 h): 161 IU/L | Na (3 h): 142.6 meq/L | PL (3 h): 141.8 mg/dL | RALB (3 h): 3.1 g/dL | TBIL (3 h): 0.028 mg/dL | TC (3 h): 78.2 mg/dL | TG (3 h): 58.6 mg/dL | TP (3 h): 5.4 g/dL | gamma-GTP (3 h): 1 IU/L | TERMINAL_BW (6 h): 200.2 g | APTT (6 h): 20.2 s | Bas (6 h): 0% | Eos (6 h): 1% | Fbg (6 h): 316 mg/dL | Hb (6 h): 13.4 g/dL | Ht (6 h): 39.5% | Lym (6 h): 81% | MCH (6 h): 21.5 pg | MCHC (6 h): 33.9% | MCV (6 h): 63.2 fL | Mono (6 h): 2.8% | Neu (6 h): 14.8% | PT (6 h): 16.2 s | Plat (6 h): 112.4 x10_4/uL | RBC (6 h): 626.4 x10_4/ul | Ret (6 h): 7.8% | WBC (6 h): 94 x10_2/uL | KIDNEY_L (6 h): 0.9 g | KIDNEY_R (6 h): 0.9 g | KIDNEY_TOTAL (6 h): 1.9 g | LIVER (6 h): 8.5 g | A/G (6 h): 1.3 | ALP (6 h): 1365.8 IU/L | ALT (6 h): 37.6 IU/L | AST (6 h): 71.6 IU/L | BUN (6 h): 11.4 mg/dL | CRE (6 h): 0.1 mg/dL | Ca (6 h): 10.6 mg/dL | Cl (6 h): 106.8 meq/L | DBIL (6 h): 0.004 mg/dL | GLC (6 h): 176 mg/dL | IP (6 h): 9 mg/dL | K (6 h): 4.2 meq/L | LDH (6 h): 230.6 IU/L | Na (6 h): 142.6 meq/L | PL (6 h): 132.4 mg/dL | RALB (6 h): 3.1 g/dL | TBIL (6 h): 0.026 mg/dL | TC (6 h): 75.2 mg/dL | TG (6 h): 56 mg/dL | TP (6 h): 5.5 g/dL | gamma-GTP (6 h): 1.2 IU/L | TERMINAL_BW (9 h): 207.2 g | APTT (9 h): 19.8 s | Bas (9 h): 0% | Eos (9 h): 1% | Fbg (9 h): 300.8 mg/dL | Hb (9 h): 13.3 g/dL | Ht (9 h): 38.8% | Lym (9 h): 73% | MCH (9 h): 21.4 pg | MCHC (9 h): 34.2% | MCV (9 h): 62.7 fL | Mono (9 h): 2.6% | Neu (9 h): 22.4% | PT (9 h): 16.2 s | Plat (9 h): 110.9 x10_4/uL | RBC (9 h): 618.6 x10_4/ul | Ret (9 h): 8.7% | WBC (9 h): 92.3 x10_2/uL | KIDNEY_L (9 h): 0.9 g | KIDNEY_R (9 h): 1 g | KIDNEY_TOTAL (9 h): 1.9 g | LIVER (9 h): 8.6 g | A/G (9 h): 1.3 | ALP (9 h): 1373.4 IU/L | ALT (9 h): 38 IU/L | AST (9 h): 67.8 IU/L | BUN (9 h): 10.4 mg/dL | CRE (9 h): 0.2 mg/dL | Ca (9 h): 10.4 mg/dL | Cl (9 h): 106.8 meq/L | DBIL (9 h): 0.004 mg/dL | GLC (9 h): 174.2 mg/dL | IP (9 h): 9.1 mg/dL | K (9 h): 4.1 meq/L | LDH (9 h): 184.2 IU/L | Na (9 h): 142 meq/L | PL (9 h): 137 mg/dL | RALB (9 h): 3.1 g/dL | TBIL (9 h): 0.028 mg/dL | TC (9 h): 83.2 mg/dL | TG (9 h): 50.4 mg/dL | TP (9 h): 5.4 g/dL | gamma-GTP (9 h): 1 IU/L | TERMINAL_BW (24 h): 221.9 g | APTT (24 h): 22 s | Bas (24 h): 0% | Eos (24 h): 1% | Fbg (24 h): 299 mg/dL | Hb (24 h): 12.9 g/dL | Ht (24 h): 37.9% | Lym (24 h): 83% | MCH (24 h): 20.8 pg | MCHC (24 h): 34.1% | MCV (24 h): 61.1 fL | Mono (24 h): 2.8% | Neu (24 h): 12.6% | PT (24 h): 16.5 s | Plat (24 h): 119.4 x10_4/uL | RBC (24 h): 620.4 x10_4/ul | Ret (24 h): 8.4% | WBC (24 h): 85.2 x10_2/uL | KIDNEY_L (24 h): 1 g | KIDNEY_R (24 h): 1 g | KIDNEY_TOTAL (24 h): 2 g | LIVER (24 h): 10.5 g | A/G (24 h): 1.3 | ALP (24 h): 1787.6 IU/L | ALT (24 h): 44.4 IU/L | AST (24 h): 74 IU/L | BUN (24 h): 18.4 mg/dL | CRE (24 h): 0.2 mg/dL | Ca (24 h): 10.7 mg/dL | Cl (24 h): 105 meq/L | DBIL (24 h): 0.006 mg/dL | GLC (24 h): 187.6 mg/dL | IP (24 h): 6.8 mg/dL | K (24 h): 4.2 meq/L | LDH (24 h): 227.2 IU/L | Na (24 h): 141.2 meq/L | PL (24 h): 150.4 mg/dL | RALB (24 h): 3.2 g/dL | TBIL (24 h): 0.008 mg/dL | TC (24 h): 78.2 mg/dL | TG (24 h): 101.6 mg/dL | TP (24 h): 5.6 g/dL | gamma-GTP (24 h): 1 IU/L

— ChEMBL document CHEMBL3885861, “Open TG-GATES”
